The subject of assay [1] is Glucose Dehydrogenase (GLD). Briefly: Relative activity of substrates with glucose dehydrogenase (vs D-glucose). It counts as biochemical. The following applies: rate of reaction relative to D-glucose (100%), NAD coenzyme.
Source text: If glucose dehydrogenase is used as the enzyme, preferred substrates for reduction of the NAD coenzyme and their relative degree of cross reactivity when compared to D-Glucose are:
For a further assay, the target named is T1, G-6-P-DH (Saccharomyces cerevisiae, UniProt P11412).
T1 sequence (P11412 1-505): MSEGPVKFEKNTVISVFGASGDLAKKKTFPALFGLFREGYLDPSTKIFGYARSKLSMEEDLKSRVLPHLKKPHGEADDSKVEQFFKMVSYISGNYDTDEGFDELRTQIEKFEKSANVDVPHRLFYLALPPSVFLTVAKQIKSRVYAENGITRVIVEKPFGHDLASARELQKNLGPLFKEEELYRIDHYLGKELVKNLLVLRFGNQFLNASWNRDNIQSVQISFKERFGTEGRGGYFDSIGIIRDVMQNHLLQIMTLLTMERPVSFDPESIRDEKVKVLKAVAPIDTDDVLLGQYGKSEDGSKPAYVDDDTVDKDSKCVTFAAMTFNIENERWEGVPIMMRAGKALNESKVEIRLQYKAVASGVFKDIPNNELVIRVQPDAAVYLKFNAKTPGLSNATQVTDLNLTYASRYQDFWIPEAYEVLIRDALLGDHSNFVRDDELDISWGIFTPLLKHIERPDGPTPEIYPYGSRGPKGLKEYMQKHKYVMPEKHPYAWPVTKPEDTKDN
Nature of the assay: Relative reactivity of substrates with G-6-P-DH, NADP as coenzyme (vs G-6-P). As to conditions: relative to G-6-P-DH/G-6-P pair. The format is biochemical, Yeast.

Assay [2] has as its target T2, Leucine Dehydrogenase (L.D) (Bacillus cereus, UniProt P0A393).
T2 sequence (P0A393 1-366): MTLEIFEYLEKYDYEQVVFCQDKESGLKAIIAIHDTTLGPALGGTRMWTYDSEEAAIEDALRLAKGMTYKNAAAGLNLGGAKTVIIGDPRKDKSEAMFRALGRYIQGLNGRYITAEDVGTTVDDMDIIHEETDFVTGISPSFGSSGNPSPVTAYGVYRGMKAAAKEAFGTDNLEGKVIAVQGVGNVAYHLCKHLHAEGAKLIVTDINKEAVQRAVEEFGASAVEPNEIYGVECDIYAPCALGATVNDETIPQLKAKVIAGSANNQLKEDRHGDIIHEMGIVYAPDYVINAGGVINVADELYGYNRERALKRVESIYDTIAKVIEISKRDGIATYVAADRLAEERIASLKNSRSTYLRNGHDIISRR
Nature of the assay: Relative activity of substrates with leucine dehydrogenase (vs L-leucine). It counts as biochemical. The following applies: relative to L-leucine (100%).
Source text: Wherein Leucine Dehydrogenase (L.D) is used as the enzyme according to the reaction [drawing 9] suitable substrates and their activity relative to L-leucine (100%) are

Assay [3] addresses T3, L-Alanine Dehydrogenase (A.D) (Lysinibacillus sphaericus, UniProt P17556).
T3 sequence (P17556 1-372): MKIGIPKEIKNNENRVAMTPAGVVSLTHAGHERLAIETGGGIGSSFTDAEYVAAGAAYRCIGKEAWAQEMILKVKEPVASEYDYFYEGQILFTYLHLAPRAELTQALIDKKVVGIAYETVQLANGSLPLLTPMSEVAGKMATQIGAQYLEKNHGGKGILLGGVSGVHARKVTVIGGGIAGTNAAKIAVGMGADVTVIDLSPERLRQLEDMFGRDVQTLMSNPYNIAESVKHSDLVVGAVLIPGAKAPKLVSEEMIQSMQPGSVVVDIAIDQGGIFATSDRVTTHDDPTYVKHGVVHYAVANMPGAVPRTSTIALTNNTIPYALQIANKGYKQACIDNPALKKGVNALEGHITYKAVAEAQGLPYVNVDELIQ
Briefly: Relative activity of substrate with L-alanine dehydrogenase (vs L-alanine). It counts as biochemical. As to conditions: relative to L-alanine (100%). An excerpt:
If L-Alanine Dehydrogenase (A.D) is used as the enzyme in a reaction system similar to that used for Leucine Dehydrogenase, a suitable substrate and its activity relative to L-alanine (100%) is […]

For assay [4], the target named is T4, Glycerol Dehydrogenase (GLY.DH) (Geobacillus stearothermophilus, UniProt P32816).
T4 sequence (P32816 1-370): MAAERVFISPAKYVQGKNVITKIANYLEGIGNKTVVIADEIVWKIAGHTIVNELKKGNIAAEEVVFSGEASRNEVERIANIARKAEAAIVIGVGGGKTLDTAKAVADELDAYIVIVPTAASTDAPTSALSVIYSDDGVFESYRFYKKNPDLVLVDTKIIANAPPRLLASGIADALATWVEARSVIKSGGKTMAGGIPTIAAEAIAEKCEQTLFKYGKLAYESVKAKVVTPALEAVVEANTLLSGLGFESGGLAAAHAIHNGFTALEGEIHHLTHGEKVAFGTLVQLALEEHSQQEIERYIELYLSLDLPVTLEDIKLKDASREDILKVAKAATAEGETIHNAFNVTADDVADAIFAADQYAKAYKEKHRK
Briefly: Relative activity of substrates with glycerol dehydrogenase (vs glycerol). It counts as biochemical. The following applies: relative to glycerol (100%).
Source text: Alternatively, using Glycerol Dehydrogenase (GLY.DH) as the enzyme, suitable substrates in the reaction [drawing 8] and their activity relative to glycerol (100%) are

Assay [5] concerns the target T5, 3α-Hydroxysteroid Dehydrogenase (H.DH) (Comamonas testosteroni, UniProt P80702).
T5 sequence (P80702 1-257): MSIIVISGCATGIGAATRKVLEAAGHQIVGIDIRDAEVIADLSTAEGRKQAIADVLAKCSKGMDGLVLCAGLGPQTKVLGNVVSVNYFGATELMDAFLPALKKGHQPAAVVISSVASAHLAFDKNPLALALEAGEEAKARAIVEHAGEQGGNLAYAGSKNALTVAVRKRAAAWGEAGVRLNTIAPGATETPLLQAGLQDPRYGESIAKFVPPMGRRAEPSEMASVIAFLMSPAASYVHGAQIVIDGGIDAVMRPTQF
Briefly: Relative activity of substrates with 3α-hydroxysteroid dehydrogenase (vs cholic acid). It counts as biochemical. The following applies: relative to Cholic Acid. The source says:
Their activities relative to Cholic Acid are also listed.

In assay [6] the test system is L-Lactate Dehydrogenase (LDH). Briefly: Relative activity of substrates with L-lactate dehydrogenase (vs L-lactate). It counts as biochemical, Lactobacillus sp. As to conditions: relative to L-Lactate.
Source text: Wherein, L-Lactate Dehydrogenase (LDH) from Lactobacillus sp. is used as the enzyme in the following reaction, [drawing 10] suitable substrates and their activity relative to L-Lactate are:

Consider `OC[C@H]1O[C@@H](O)[C@H](O)[C@@H](O)[C@@H]1O` [D-Glucose], for which, in assay [1], the “Relative Activity” value was 100%.

As for `O=P(O)(O)OC[C@H]1OC(O)C[C@@H](O)[C@@H]1O` (some centres unmarked) [2-deoxyglucose-6-P], the relative reactivity on G-6-P-DH worked out at 18%.

In the case of `OC[C@@H](O)[C@@H](O)[C@H](O)[C@@H](O)CO` [D-sorbitol], the “Relative Activity” value in assay [1] was found to be 0.1%.

Consider `N[C@@H](CS)C(=O)O` [L-Cysteine], for which the “Relative Activity” value in assay [2] amounted to 0.3%.

Consider `N[C@@H](CO)C(=O)O` [L-serine], for which, in assay [3], the “Relative Activity” value came to 5%.

For the molecule `OCCO` [Ethylene glycol], the “Relative Activity” value in assay [4] was determined as 7.8%.

Regarding `OC[C@H]1OC(O)[C@@H](O)[C@@H](O)[C@@H]1O` (stereo partly drawn) [D-mannose], in assay [1], the “Relative Activity” value is reported as 2.4%.

Turning to `CC(C)[C@H](N)C(=O)O` [L-Valine], the “Relative Activity” value in assay [2] is on record as 74%.

For `OCC(O)CO` [glycerol], the “Relative Activity” value in assay [4] is given as 100%.

Take `CC[C@H](C)[C@H](N)C(=O)O` [L-Isoleucine]: the “Relative Activity” value in assay [2] stood at 58%.

For `O=C(CO)[C@@H](O)[C@H](O)[C@H](O)CO` [D-fructose], the “Relative Activity” value in assay [1] turned out to be 0.8%.

Turning to `CSCC[C@H](N)C(=O)O` [L-Methionine], in assay [2], the “Relative Activity” value is on record as 0.6%.

On to `CCC[C@H](N)C(=O)O` [L-Norvaline], for which, in assay [2], the “Relative Activity” value was determined as 41%.

On to `CCCC[C@H](N)C(=O)O` [L-Norleucine], for which the “Relative Activity” value in assay [2] is 10%.

For Etiocholic Acid, the “Relative Activity” value in assay [5] came to 60%.

As for `CC(O)C(C)O` (centres unmarked) [2,3-Butanediol], the “Relative Activity” value in assay [4] is listed as 52.6%.

In the case of `N[C@H]1C(O)O[C@H](COP(=O)(O)O)[C@@H](O)[C@@H]1O` (some centres unmarked) [glucosamine-6-P], the relative reactivity at G-6-P-DH amounted to 2%.

Regarding `C[C@H](CCC(=O)O)[C@H]1CC[C@H]2[C@@H]3CC[C@@H]4C[C@H](O)CC[C@]4(C)[C@H]3CC[C@]12C` [Lithocholic Acid], the “Relative Activity” value in assay [5] was found to be 96%.

In the case of `OCC(O)CCl` (stereo not drawn) [Glycerol-α-monochlorohydrin], the “Relative Activity” value in assay [4] worked out at 48.5%.

xylose: the “Relative Activity” value in assay [1] is 8.9%.

For the molecule `OC[C@H]1OC(O)[C@H](O)[C@@H](O)[C@H]1O` (stereo partly drawn) [D-galactose], in assay [1], the “Relative Activity” value is on record as 0.1%.

Regarding `OC[C@H]1O[C@@H](O[C@H]2[C@H](O)[C@@H](O)C(O)O[C@@H]2CO)[C@H](O)[C@@H](O)[C@H]1O` (stereo partly drawn) [D-lactose], the “Relative Activity” value in assay [1] is reported as 1.2%.

`CC(C)C[C@H](N)C(=O)O` [L-leucine]: the “Relative Activity” value in assay [2] was 100%.

With `O=P(O)(O)OC[C@H]1OC(O)[C@H](O)[C@@H](O)[C@H]1O` (some centres unmarked) [galactose-6-P], the relative reactivity at G-6-P-DH was found to be 25%.

On to `O=C(CO)[C@@H](O)[C@H](O)[C@@H](O)CO` [L-sorbose], for which the “Relative Activity” value in assay [1] is 0.3%.

Consider `OC[C@H]1O[C@H](O[C@H]2[C@H](O)[C@@H](O)[C@H](O)O[C@@H]2CO)[C@H](O)[C@@H](O)[C@@H]1O` [maltose], for which the “Relative Activity” value in assay [1] is 3.9%.

As to `C[C@H](N)C(=O)O` [L-alanine], in assay [3], the “Relative Activity” value stood at 100%.

Consider `O[C@H]1[C@H](O)[C@@H](O)[C@H](O)[C@@H](O)[C@H]1O` [inositol], for which the “Relative Activity” value in assay [1] was 0.2%.

For `O=C(O)CC(=O)C(=O)O` [Oxoloacetate], in assay [6], the “Relative Activity” value stood at 36%.
